# Active and inactive are the calls of the source. The calls are words filed in the database; no cut-off is given here.
# Tests used:
# [1] = biological target: Epidermal growth factor receptor (Homo sapiens, UniProt P00533); type: cell-based, A-431
# [2] = biological target: Dihydroorotate dehydrogenase (quinone), mitochondrial (Homo sapiens, UniProt Q02127); assay: Inhibition of human DHODH
# [3] = test system: A-431; assay: Antiproliferative activity against human A431 cells after 48 hrs by CYQUANT assay; type: functional, cell-based; settings: A-431, 48 h
# [4] = biological target: T1, Dihydroorotate dehydrogenase (Plasmodium falciparum, UniProt Q54A96); assay: Inhibition of Plasmodium falciparum DHODH
# T1 sequence (Q54A96 whole entry): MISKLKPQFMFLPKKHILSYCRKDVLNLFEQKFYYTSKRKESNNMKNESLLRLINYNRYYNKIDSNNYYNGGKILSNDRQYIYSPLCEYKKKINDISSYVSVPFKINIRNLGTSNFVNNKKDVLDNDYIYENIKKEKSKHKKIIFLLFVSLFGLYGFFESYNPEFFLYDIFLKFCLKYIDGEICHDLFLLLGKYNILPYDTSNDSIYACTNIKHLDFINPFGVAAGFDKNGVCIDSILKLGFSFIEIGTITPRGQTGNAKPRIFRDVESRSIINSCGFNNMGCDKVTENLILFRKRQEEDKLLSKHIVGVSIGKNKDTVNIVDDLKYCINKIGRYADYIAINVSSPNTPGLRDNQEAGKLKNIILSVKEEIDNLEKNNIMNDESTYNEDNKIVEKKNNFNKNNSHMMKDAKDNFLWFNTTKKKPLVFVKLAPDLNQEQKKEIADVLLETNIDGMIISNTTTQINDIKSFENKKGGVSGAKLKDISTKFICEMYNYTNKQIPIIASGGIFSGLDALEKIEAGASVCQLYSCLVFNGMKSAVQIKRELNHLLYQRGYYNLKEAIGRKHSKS
# [5] = biological target: Platelet-derived growth factor receptor beta (Homo sapiens, UniProt P09619); assay: Inhibition of PDGFRbeta in human SF539 cells pretreated for 60 mins measured after 10 mins by ELISA
# Chain of Platelet-derived growth factor receptor beta (P09619 whole entry): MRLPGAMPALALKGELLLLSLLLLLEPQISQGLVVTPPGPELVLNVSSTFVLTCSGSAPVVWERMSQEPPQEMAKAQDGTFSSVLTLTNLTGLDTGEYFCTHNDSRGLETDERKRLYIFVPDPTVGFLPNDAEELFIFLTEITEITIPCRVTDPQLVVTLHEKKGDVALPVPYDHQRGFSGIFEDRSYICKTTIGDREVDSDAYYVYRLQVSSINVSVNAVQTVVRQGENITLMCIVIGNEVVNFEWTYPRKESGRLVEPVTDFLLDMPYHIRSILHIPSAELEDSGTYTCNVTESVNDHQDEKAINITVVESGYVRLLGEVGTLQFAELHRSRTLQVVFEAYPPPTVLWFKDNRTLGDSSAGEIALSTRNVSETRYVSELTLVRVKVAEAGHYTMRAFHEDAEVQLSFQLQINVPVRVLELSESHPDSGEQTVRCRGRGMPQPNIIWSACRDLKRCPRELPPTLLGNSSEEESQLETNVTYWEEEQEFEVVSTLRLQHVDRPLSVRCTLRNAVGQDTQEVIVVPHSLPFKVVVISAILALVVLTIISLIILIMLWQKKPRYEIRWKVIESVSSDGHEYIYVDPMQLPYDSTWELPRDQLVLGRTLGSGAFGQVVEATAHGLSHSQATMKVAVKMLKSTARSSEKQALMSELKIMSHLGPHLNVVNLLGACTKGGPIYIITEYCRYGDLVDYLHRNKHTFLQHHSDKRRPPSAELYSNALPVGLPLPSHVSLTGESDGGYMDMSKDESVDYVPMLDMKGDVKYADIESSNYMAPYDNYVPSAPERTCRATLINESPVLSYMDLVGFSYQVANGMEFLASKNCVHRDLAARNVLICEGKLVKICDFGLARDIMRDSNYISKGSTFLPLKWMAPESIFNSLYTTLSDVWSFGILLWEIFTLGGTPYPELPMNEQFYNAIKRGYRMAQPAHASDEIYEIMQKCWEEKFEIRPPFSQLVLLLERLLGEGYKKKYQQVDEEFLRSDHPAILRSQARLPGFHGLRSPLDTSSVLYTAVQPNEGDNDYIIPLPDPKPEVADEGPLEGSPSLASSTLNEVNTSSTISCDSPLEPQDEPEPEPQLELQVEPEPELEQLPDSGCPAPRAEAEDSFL
# [6] = Antiangiogenic activity in VEGF/bFGF-stimulated chicken embryo after 48 hrs by CAM assay; type: functional, Gallus gallus
# [7] = biological target: Vascular endothelial growth factor receptor 2 (Homo sapiens, UniProt P35968); type: cell-based, U-251
# Chain of Vascular endothelial growth factor receptor 2 (P35968 whole entry): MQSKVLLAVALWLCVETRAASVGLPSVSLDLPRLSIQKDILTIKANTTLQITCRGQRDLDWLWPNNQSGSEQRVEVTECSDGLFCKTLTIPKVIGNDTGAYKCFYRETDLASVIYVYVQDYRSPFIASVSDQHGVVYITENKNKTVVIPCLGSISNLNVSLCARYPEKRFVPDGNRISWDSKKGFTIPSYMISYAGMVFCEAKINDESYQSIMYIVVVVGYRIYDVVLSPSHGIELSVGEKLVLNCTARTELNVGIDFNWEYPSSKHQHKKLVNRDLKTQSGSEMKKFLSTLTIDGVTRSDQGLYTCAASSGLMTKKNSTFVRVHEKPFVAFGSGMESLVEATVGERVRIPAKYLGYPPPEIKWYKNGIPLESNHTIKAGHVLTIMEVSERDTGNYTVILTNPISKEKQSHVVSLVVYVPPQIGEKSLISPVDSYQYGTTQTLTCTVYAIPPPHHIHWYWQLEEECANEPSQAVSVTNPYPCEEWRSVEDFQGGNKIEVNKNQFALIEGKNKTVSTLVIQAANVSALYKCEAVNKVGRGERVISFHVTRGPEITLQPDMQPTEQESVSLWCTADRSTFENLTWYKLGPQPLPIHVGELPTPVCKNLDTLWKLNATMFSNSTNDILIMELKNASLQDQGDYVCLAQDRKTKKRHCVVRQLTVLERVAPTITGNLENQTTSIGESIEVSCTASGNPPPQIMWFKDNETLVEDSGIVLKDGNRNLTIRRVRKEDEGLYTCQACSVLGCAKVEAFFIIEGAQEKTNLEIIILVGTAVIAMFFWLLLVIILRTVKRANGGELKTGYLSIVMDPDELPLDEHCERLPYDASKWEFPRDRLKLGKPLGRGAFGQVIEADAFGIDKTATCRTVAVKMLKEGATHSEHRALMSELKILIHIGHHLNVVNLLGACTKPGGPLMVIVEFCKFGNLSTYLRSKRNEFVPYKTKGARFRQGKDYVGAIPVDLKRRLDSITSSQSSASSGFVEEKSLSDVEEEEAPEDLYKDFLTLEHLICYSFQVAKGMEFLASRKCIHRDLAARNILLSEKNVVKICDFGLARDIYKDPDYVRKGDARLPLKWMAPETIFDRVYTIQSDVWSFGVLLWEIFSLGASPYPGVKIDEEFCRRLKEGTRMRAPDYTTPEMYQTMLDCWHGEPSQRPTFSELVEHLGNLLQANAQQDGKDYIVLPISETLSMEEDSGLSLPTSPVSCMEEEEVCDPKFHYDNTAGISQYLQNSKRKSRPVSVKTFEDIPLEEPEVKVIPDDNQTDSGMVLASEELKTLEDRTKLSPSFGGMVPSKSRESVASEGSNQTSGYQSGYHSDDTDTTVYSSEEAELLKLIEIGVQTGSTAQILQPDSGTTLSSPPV
# [8] = biological target: T2, Bifunctional dihydrofolate reductase-thymidylate synthase (Toxoplasma gondii, UniProt Q07422); assay: Inhibition of Toxoplasma gondii DHFR
# T2 sequence (Q07422 whole entry): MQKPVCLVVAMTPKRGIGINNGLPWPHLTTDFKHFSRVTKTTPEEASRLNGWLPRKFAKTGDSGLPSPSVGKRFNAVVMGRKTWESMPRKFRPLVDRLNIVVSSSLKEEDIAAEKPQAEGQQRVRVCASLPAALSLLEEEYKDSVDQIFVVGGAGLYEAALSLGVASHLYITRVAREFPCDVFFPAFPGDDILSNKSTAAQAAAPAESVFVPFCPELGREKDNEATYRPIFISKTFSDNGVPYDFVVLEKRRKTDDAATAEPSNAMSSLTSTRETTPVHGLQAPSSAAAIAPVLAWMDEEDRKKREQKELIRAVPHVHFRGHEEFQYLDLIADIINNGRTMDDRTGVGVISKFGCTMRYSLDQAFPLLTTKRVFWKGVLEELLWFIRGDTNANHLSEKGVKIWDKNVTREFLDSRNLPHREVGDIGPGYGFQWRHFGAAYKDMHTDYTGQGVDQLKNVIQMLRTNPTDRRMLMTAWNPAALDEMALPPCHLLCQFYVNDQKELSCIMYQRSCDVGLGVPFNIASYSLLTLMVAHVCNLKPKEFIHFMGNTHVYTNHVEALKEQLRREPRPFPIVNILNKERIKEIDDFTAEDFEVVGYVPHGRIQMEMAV
# [9] = biological target: T2, Bifunctional dihydrofolate reductase-thymidylate synthase; assay: Inhibition of Toxoplasma gondii thymidylate synthase
# [10] = Inhibition of Escherichia coli thymidylate synthase
# [11] = biological target: Thymidylate synthase (Homo sapiens, UniProt P04818); assay: Inhibition of human thymidylate synthase
# Chain of Thymidylate synthase (P04818 whole entry): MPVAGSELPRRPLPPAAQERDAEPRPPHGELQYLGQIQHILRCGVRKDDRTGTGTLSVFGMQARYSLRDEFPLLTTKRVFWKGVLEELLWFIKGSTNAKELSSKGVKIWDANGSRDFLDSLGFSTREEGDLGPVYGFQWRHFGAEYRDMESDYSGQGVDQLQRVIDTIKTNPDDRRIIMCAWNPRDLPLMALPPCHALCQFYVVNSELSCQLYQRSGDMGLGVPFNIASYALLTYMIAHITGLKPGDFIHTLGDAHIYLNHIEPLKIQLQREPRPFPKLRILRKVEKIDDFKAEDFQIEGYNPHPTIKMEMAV
# [12] = biological target: T3, Dihydrofolate reductase (Homo sapiens, UniProt P00374)
# T3 sequence (P00374 whole entry): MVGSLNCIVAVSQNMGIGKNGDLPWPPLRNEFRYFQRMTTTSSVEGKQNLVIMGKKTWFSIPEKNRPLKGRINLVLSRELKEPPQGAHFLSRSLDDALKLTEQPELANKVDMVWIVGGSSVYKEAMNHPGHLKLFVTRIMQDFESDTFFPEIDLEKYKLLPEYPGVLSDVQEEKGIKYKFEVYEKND
# [13] = test system: RXF 393; assay: cells; settings: Homo sapiens
# [14] = test system: SK-MEL-2; assay: cells; settings: Homo sapiens
# [15] = test system: HOP-62; assay: cells; settings: Homo sapiens
# [16] = test system: Mus musculus; assay: Toxicity in NCr nu/nu mouse allografted with mouse B16F10 cells at 35 mg/kg, ip administered three times a week for 4 weeks; type: organism-based, B16-F10; parameters: dose 35 mg/kg, route intraperitoneal; settings: in vivo, 672 h
# [17] = test system: COLO 205; assay: cells; settings: Homo sapiens
# [18] = test system: 786-0; assay: cells; settings: Homo sapiens
# [19] = test system: TK-10; assay: cells; settings: Homo sapiens
# [20] = test system: A549; assay: cells; settings: Homo sapiens
# [21] = test system: NCI-H322M; assay: cells; settings: Homo sapiens
# [22] = test system: SF-539; assay: cells; settings: Homo sapiens
# [23] = test system: HCT-116; assay: cells; settings: Homo sapiens
# [24] = test system: Malme-3M; assay: cells; settings: Homo sapiens
# [25] = test system: HOP-92; assay: cells; settings: Homo sapiens
# [26] = test system: SN12C; assay: cells; settings: Homo sapiens
# [27] = test system: UACC-257; assay: cells; settings: Homo sapiens
# [28] = test system: CAKI-1; assay: cells; settings: Homo sapiens
# [29] = test system: SK-MEL-28; assay: cells; settings: Homo sapiens
# [30] = test system: HL-60(TB); assay: cells; settings: Homo sapiens
# [31] = test system: SW-620; assay: cells; settings: Homo sapiens
# [32] = test system: DU-145; assay: cells; settings: Homo sapiens
# [33] = test system: SNB-75; assay: cells; settings: Homo sapiens
# [34] = test system: SK-OV-3; assay: cells; settings: Homo sapiens
# [35] = test system: SNB-19; assay: cells; settings: Homo sapiens
# [36] = test system: B16-F10; assay: Antitumor activity against mouse B16F10 cells allografted in NCr nu/nu mouse assessed as tumor growth reduction at 35 mg/kg, ip administered three times weekly for 2 weeks
# [37] = test system: LOX IMVI; assay: cells; settings: Homo sapiens
# [38] = test system: U-251; assay: cells; settings: Homo sapiens
# [39] = test system: A498; assay: cells; settings: Homo sapiens
# [40] = test system: HCT-15; assay: cells; settings: Homo sapiens
# [41] = test system: MDA-MB-231; assay: cells; settings: Homo sapiens
# [42] = test system: NCI-H460; assay: cells; settings: Homo sapiens
# [43] = test system: MCF7; assay: cells; settings: Homo sapiens
# [44] = cells; settings: Homo sapiens, Hs-578T
# [45] = test system: OVCAR-4; assay: cells; settings: Homo sapiens
# [46] = test system: ACHN; assay: cells; settings: Homo sapiens
# [47] = test system: NCI-H522; assay: cells; settings: Homo sapiens
# [48] = test system: UACC-62; assay: cells; settings: Homo sapiens
# [49] = test system: T47D; assay: cells; settings: Homo sapiens
# [50] = test system: MOLT-4; assay: cells; settings: Homo sapiens
# [51] = test system: SR; assay: cells; settings: Homo sapiens
# [52] = test system: CCRF-CEM; assay: cells; settings: Homo sapiens
# [53] = test system: M14; assay: cells; settings: Homo sapiens
# [54] = test system: SF-295; assay: cells; settings: Homo sapiens
# [55] = test system: UO-31; assay: cells; settings: Homo sapiens
# [56] = test system: EKVX; assay: cells; settings: Homo sapiens
# [57] = test system: BT-549; assay: cells; settings: Homo sapiens
# [58] = test system: MDA-MB-435; assay: cells; settings: Homo sapiens
# [59] = test system: IGROV-1; assay: cells; settings: Homo sapiens
# [60] = test system: B16-F10; assay: Antitumor activity against mouse B16F10 cells allografted in NCr nu/nu mouse assessed as inhibition of tumor angiogenesis at 35 mg/kg, ip administered three times weekly for 2 weeks
# [61] = test system: OVCAR-3; assay: cells; settings: Homo sapiens
# [62] = test system: NCI-H23; assay: cells; settings: Homo sapiens
# [63] = test system: SK-MEL-5; assay: cells; settings: Homo sapiens
# [64] = cells; settings: Homo sapiens, NCI/ADR-RES
# [65] = test system: KM12; assay: cells; settings: Homo sapiens
# [66] = test system: SF-268; assay: cells; settings: Homo sapiens
# [67] = test system: Mus musculus; assay: Toxicity in NCr nu/nu mouse allografted with mouse B16F10 cells assessed as weight loss at 35 mg/kg, ip administered three times a week for 4 weeks; type: organism-based, B16-F10; parameters: dose 35 mg/kg, route intraperitoneal; settings: in vivo, 672 h
# [68] = test system: B16-F10; assay: Antitumor activity against mouse B16F10 cells allografted in NCr nu/nu mouse assessed as decrease in tumor metastasis at 35 mg/kg, ip administered three times weekly for 2 weeks
# [69] = test system: OVCAR-8; assay: cells; settings: Homo sapiens
# [70] = test system: K562; assay: cells; settings: Homo sapiens
# [71] = test system: PC-3; assay: cells; settings: Homo sapiens
# [72] = test system: NCI-H226; assay: cells; settings: Homo sapiens
# [73] = test system: RPMI-8226; assay: cells; settings: Homo sapiens
# Chain of Dihydroorotate dehydrogenase (quinone), mitochondrial (Q02127 whole entry): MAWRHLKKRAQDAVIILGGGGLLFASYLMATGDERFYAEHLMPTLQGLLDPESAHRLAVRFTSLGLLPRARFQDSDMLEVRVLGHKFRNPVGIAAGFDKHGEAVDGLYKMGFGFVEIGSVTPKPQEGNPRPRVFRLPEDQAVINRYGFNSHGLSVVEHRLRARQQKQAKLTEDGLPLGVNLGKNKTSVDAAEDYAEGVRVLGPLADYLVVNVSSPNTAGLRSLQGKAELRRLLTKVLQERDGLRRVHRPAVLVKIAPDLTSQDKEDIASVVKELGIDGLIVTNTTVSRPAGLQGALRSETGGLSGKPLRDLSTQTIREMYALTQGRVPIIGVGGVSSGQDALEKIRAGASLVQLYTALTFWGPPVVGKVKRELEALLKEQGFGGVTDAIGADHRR
# Chain of Epidermal growth factor receptor (P00533 whole entry): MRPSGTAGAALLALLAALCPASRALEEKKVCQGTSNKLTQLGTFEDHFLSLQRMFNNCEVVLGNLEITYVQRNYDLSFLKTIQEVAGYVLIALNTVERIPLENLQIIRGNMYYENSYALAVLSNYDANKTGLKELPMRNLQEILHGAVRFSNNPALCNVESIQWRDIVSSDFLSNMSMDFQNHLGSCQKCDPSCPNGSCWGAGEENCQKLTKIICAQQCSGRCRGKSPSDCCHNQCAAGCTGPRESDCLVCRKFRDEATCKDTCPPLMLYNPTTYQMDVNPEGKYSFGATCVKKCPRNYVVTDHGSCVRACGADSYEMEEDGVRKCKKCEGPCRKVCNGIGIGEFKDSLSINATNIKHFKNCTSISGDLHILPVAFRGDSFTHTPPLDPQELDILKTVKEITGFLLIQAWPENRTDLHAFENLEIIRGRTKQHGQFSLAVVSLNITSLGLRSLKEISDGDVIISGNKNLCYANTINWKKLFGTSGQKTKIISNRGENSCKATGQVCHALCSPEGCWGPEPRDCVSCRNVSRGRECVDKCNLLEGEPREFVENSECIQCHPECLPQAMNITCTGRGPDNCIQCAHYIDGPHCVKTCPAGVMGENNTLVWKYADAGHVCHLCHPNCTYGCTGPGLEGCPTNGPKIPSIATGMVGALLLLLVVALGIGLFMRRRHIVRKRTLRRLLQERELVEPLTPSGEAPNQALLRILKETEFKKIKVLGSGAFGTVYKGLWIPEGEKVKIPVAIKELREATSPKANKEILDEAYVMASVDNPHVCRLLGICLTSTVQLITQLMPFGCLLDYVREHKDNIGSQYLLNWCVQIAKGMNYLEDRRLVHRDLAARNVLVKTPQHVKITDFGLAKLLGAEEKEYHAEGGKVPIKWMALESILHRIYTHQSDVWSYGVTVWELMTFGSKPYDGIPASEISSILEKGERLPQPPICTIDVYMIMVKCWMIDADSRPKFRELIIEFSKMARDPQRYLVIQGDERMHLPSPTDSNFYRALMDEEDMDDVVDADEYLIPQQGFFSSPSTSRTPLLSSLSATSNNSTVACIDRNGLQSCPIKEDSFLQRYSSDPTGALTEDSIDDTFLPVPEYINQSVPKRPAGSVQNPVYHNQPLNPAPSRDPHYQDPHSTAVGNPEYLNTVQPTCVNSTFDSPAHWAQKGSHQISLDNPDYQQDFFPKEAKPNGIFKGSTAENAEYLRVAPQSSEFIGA
smiles,measurement,setting,value
COc1cccc(Nc2nc(N)nc3c2-c2ccccc2C3)c1,IC50,[1],> 200 µM
same,IC50,[2],> 200 µM
same,IC50,[3],13.9 µM
same,IC50,[4],> 200 µM
Nc1nc2c(c(Nc3ccc(F)cc3)n1)-c1ccccc1C2,IC50,[5],5.9 µM
same,IC50,[1],276 µM
same,IC50,[6],46.7 µM
same,IC50,[3],50.3 µM
same,IC50,[7],89.3 µM
Nc1nc2c(c(Nc3ccc(F)c(Cl)c3)n1)-c1ccccc1C2,IC50,[1],> 200 µM
same,IC50,[8],> 16 µM
same,IC50,[9],> 13 µM
same,IC50,[10],> 13 µM
same,IC50,[3],158 µM
same,IC50,[11],> 13 µM
same,IC50,[12],> 16 µM
Nc1nc2c(c(Nc3ccc(Br)cc3)n1)-c1ccccc1C2,IC50,[5],38.9 µM
same,IC50,[6],19.1 µM
same,IC50,[3],103 µM
same,IC50,[7],30.1 µM
Nc1nc2c(c(Nc3ccc(Cl)cc3)n1)-c1ccccc1C2,GI50,[13],2910 nM
same,GI50,[14],558 nM
same,GI50,[15],654 nM
same,Activity,[16],Non-toxic
same,GI50,[17],638 nM
same,GI50,[18],514 nM
same,GI50,[19],2150 nM
same,GI50,[20],43.4 nM
same,IC50,[8],> 16 µM
same,GI50,[21],1350 nM
same,GI50,[22],381 nM
same,GI50,[23],38.1 nM
same,GI50,[24],> 10 µM
same,GI50,[25],18.1 µM
same,IC50,[9],> 14 µM
same,GI50,[26],189 nM
same,GI50,[27],84.5 nM
same,GI50,[28],1080 nM
same,IC50,[2],> 200 µM
same,GI50,[29],1510 nM
same,GI50,[30],150 nM
same,GI50,[31],63 nM
same,IC50,[10],> 14 µM
same,GI50,[32],212 nM
same,GI50,[33],5.03 µM
same,GI50,[34],2090 nM
same,GI50,[35],113 nM
same,growth inhibition (GI),[36],Active
same,GI50,[37],308 nM
same,GI50,[38],184 nM
same,GI50,[39],2490 nM
same,GI50,[40],434 nM
same,GI50,[41],641 nM
same,GI50,[42],19.3 nM
same,GI50,[43],73.4 nM
same,GI50,[44],2220 nM
same,GI50,[45],2090 nM
same,GI50,[46],3.42 µM
same,GI50,[47],622 nM
same,GI50,[48],641 nM
same,GI50,[49],2900 nM
same,GI50,[50],66.1 nM
same,GI50,[51],484 nM
same,GI50,[52],31.2 nM
same,GI50,[53],431 nM
same,GI50,[54],547 nM
same,GI50,[55],790 nM
same,GI50,[56],2710 nM
same,GI50,[57],2830 nM
same,IC50,[3],9.7 µM
same,IC50,[4],> 200 µM
same,GI50,[58],554 nM
same,IC50,[7],> 200 µM
same,GI50,[59],287 nM
same,Activity,[60],Active
same,IC50,[11],> 14 µM
same,GI50,[61],216 nM
same,GI50,[62],565 nM
same,IC50,[12],> 16 µM
same,GI50,[63],513 nM
same,GI50,[64],787 nM
same,GI50,[65],330 nM
same,GI50,[66],86.2 nM
same,Activity,[67],Non-toxic
same,Activity,[68],inactive
same,GI50,[69],216 nM
same,GI50,[70],366 nM
same,GI50,[71],715 nM
same,GI50,[72],2140 nM
same,GI50,[73],489 nM
Nc1nc2c(c(Nc3ccccc3)n1)-c1ccccc1C2,IC50,[1],> 200 µM
same,IC50,[2],> 200 µM
same,IC50,[3],4.9 µM
same,IC50,[4],> 200 µM
Nc1nc2c(c(Nc3cccc(F)c3)n1)-c1ccccc1C2,IC50,[1],> 300 µM
same,IC50,[2],> 200 µM
same,IC50,[3],9.8 µM
same,IC50,[4],> 200 µM

# From ChEMBL document CHEMBL2046359, “Novel tricyclic indeno[2,1-d]pyrimidines with dual antiangiogenic and cytotoxic activities as potent antitumor agents” (Bioorg Med Chem, 2012)
